One data set relates to Boophilus microplus. Put plainly: Boophilus microplus test (BOOPMI injection). The format is in vivo. As to conditions: application rate 20 μg/animal; injected into the abdomen; after 7 days. The procedure: Boophilus microplus Test (BOOPMI Injection) Solvent: dimethyl sulphoxide To prepare an appropriate active ingredient formulation, 10 mg of active ingredient are mixed with 0.5 ml of solvent and the concentrate is diluted with solvent to the desired concentration. The active ingredient solution is injected into the abdomen (Boophilus microplus), and the animals are transferred into dishes and stored in a climate-controlled room. After 7 days, the efficacy in % is determined. The activity is assessed by laying of fertile eggs. 100% means that none of the ticks has laid any fertile eggs.

In another data set the test system is Phaedon cochleariae. Put plainly: Phaedon test (PHAECO spray treatment). The format is in vivo. As to conditions: application rate 100 g/ha, Chinese cabbage leaf discs, after 7 days. The gist of the method: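 Larval mortality was assessed 7 days after Phaedon cochleariae larvae were placed on dried, spray-treated Brassica pekinensis leaf discs. The formulation was an acetone/dimethylformamide concentrate with alkylaryl polyglycol ether emulsifier, diluted in emulsifier-containing water. Results are given as % kill, from 0 (no larvae dead) to 100 (all dead).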

In a further data set the test system is adult Musca domestica. Nature of the data set: Musca domestica test (MUSCDO). As to conditions: application rate 100 ppm; treated sponge; after 2 days. The format is in vivo. As for the experimental part:
Musca domestica Test (MUSCDO) Solvent: dimethyl sulphoxide To prepare an appropriate active ingredient formulation, 10 mg of active ingredient are mixed with 0.5 ml of dimethyl sulphoxide and the concentrate is diluted with water to the desired concentration. Vessels containing a sponge treated with the active ingredient formulation of the desired concentration are populated with adult Musca domestica. After 2 days, the kill in % is determined 100% means that all of the flies have been killed; 0% means that none of the flies have been killed.

Another data set concerns Lucilia cuprina larvae. Nature of the data set: Lucilia cuprina test (LUCICU). As to conditions: application rate 100 ppm; treated horse meat; after 2 days. It is filed as in vivo. The procedure: Lucilia cuprina Test (LUCICU) Solvent: dimethyl sulphoxide To prepare an appropriate active ingredient formulation, 10 mg of active ingredient are mixed with 0.5 ml of dimethyl sulphoxide and the concentrate is diluted with water to the desired concentration. Vessels containing horse meat treated with the active ingredient formulation of the desired concentration are populated with about 20 Lucilia cuprina larvae. After 2 days, the kill in % is determined. 100% means that all of the larvae have been killed; 0% means that none of the larvae have been killed.

A further data set relates to Spodoptera frugiperda. Nature of the data set: Spodoptera frugiperda test (SPODFR spray treatment). It is filed as in vivo. As to conditions: application rate 100 g/ha; maize leaf discs; after 7 days. The gist of the method: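 Mortality read-out at 7 days, given as % efficacy, where 100% means every caterpillar dead and 0% none. Caterpillars were placed on dried maize leaf discs that had been sprayed with test formulation. That formulation was an acetone/dimethylformamide concentrate diluted in emulsifier-containing water.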

In a further data set the test system is Tetranychus urticae. Nature of the data set: Tetranychus test, OP-resistant (TETRUR spray treatment). It is filed as in vivo. As to conditions: application rate 100 g/ha; bean leaf discs; after 6 days. The gist of the method:
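Bean leaf discs infested with all stages of OP-resistant T. urticae sprayed with compound formulated in acetone/DMF plus alkylaryl polyglycol ether emulsifier, diluted in water. Efficacy (% mites killed) scored after 6 days.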

A short description of another data set: logP (HPLC-MS). It is filed as physicochemical.
In the next data set the test system is Ctenocephalides felis. Nature of the data set: Ctenocephalides felis oral (CTECFE). As to conditions: application rate 100 ppm in citrated cattle blood; after 2 days. The format is in vivo. The procedure: Ctenocephalides felis Oral ([…]) Solvent: 1 part by weight of dimethyl sulphoxide For the purpose of preparing an appropriate active ingredient formulation, 10 mg of active ingredient are mixed with 0.5 ml of dimethyl sulphoxide. A portion of the concentrate is diluted with citrated cattle blood, and the desired concentration is prepared. About 20 unfed adult fleas (Ctenocephalides felis) are placed into a chamber which is closed at the top and bottom with gauze. A metal cylinder whose bottom end is closed with Parafilm is placed onto the chamber. The cylinder contains the blood/active ingredient formulation, which can be imbibed by the fleas through the Parafilm membrane. After 2 days, the kill in % is determined 100% means that all of the fleas have been killed; 0% means that none of the fleas have been killed.

[1] abbreviates: HPLC, reversed-phase column (C18), 43° C., acidic range pH 2.7, EEC directive 79/831 Annex V.A8, two values = both regioisomers (G = N).
[2] abbreviates: HPLC, reversed-phase column (C18), acidic range pH 2.7, acetonitrile (0.1% formic acid)/water gradient, 43° C., calibration with unbranched alkan-2-ones.

Read-outs that look alike come from different tables or passages of the source.

This note sets out measurements from patent publication US9107411B2, “Indolecarboxamides and benzimidazolecarboxamides as insecticides and acaricides” (BAYER INTELLECTUAL PROPERTY GMBH, priority 2011, dated 2015).

In the case of `C=CCn1c(C(=O)NC(c2cccc(C(F)(F)F)c2)C(F)(F)F)cc2cc(C(=O)NC3(C#N)CC3)c(Cl)cc21` (stereo not shown) [Compound 283], in the data set with Boophilus microplus, the “efficacy (laying of fertile eggs)” value is recorded as 100%. The efficacy in % with Phaedon cochleariae, in the data set on Spodoptera frugiperda and with Tetranychus urticae was 100% each time. The results for the “efficacy (kill in %)” value in the data set with adult Musca domestica, in the data set with Lucilia cuprina larvae and in the data set on Ctenocephalides felis were 90%, 100% and 100%, respectively. For the same compound, the log p in “logP (HPLC-MS)” (setting [1]) came to 3.74.
On to `Cn1c(C(=O)NC(c2ccc(F)c(Br)c2)C(F)(F)F)cc2cc(C(=O)NC3(C#N)CC3)c(Cl)cc21` (stereo not shown) [Compound 52], for which the “efficacy (laying of fertile eggs)” value in the data set with Boophilus microplus is 100%. Also, the efficacy in % in the data set on Phaedon cochleariae, in the data set with Spodoptera frugiperda and in the data set with Tetranychus urticae was 100% throughout. Also, the “efficacy (kill in %)” value in the data set on adult Musca domestica, in the data set on Lucilia cuprina larvae and in the data set on Ctenocephalides felis was 100% throughout. Besides, the log p in the data set “logP (HPLC-MS)” (setting [2]) is reported as 3.44.
Turning to `CCn1c(C(=O)NC(c2cccc(C(F)(F)F)c2)C(F)(F)F)cc2cc(C(=O)NC(C)(C)C#N)c(Cl)cc21` (stereo not shown) [Compound 15], in the data set on Boophilus microplus, the “efficacy (laying of fertile eggs)” value is reported as 100%. The efficacy in % in the data set on Phaedon cochleariae and with Spodoptera frugiperda was 100% each time. In addition, the “efficacy (kill in %)” value with adult Musca domestica, in the data set on Lucilia cuprina larvae and in the data set with Ctenocephalides felis was 100% each time. The log p in the data set “logP (HPLC-MS)” (setting [2]) was found to be 3.89.
As to `CCn1c(C(=O)NC(c2ccc(F)c(Br)c2)C(F)(F)F)cc2cc(C(=O)NC3CC3)c(C)cc21` (stereo not shown) [Compound 190], the “efficacy (laying of fertile eggs)” value with Boophilus microplus was found to be 100%. Moreover, the efficacy in % with Phaedon cochleariae, with Spodoptera frugiperda and with Tetranychus urticae was 100% in each case. The “efficacy (kill in %)” value in the data set on adult Musca domestica, in the data set with Lucilia cuprina larvae and in the data set on Ctenocephalides felis was 100% throughout. The compound also gave a log p in the data set “logP (HPLC-MS)” (setting [2]) of 3.70.
`C#CCn1c(C(=O)NC(c2cccc(C(F)(F)F)c2)C(F)(F)F)cc2cc(C(=O)NC3(C#N)CC3)c(Cl)cc21` (stereo not shown) [Compound 57, 6-chloro-N^5-(1-cyanocyclopropyl)-1-(prop-2-yn-1-yl)-N^2-{2,2,2-trifluoro-1-[3-(trifluoromethyl)phenyl]ethyl}-1H-indole-2,5-dicarboxamide]: the “efficacy (laying of fertile eggs)” value with Boophilus microplus stood at 100%. Moreover, the pest or weed control at 100 g/ha in the data set with Phaedon cochleariae (Phaedon cochleariae, foliar, 168 h, read-out: efficacy in %) turned out to be 100%. Also, the “efficacy (kill in %)” value in the data set with adult Musca domestica, in the data set with Lucilia cuprina larvae and in the data set with Ctenocephalides felis was 100% in each case. Moreover, the efficacy in % in the data set on Spodoptera frugiperda and in the data set on Tetranychus urticae was 100% in each case. The chromatographic logP in “logP (HPLC-MS)” (HPLC, reversed-phase column (C18), acidic range pH 2.7, acetonitrile (0.1% formic acid)/water gradient, 43° C., calibration with unbranched alkan-2-ones, read-out: log p) stood at 3.49; in the data set “logP (HPLC-MS)” (HPLC-MS), 3.49.
`Cn1c(C(=O)NC(c2ccc(F)c(C(F)(F)F)c2)C(F)(F)F)cc2cc(C(=O)NC3(C#N)CC3)c(Cl)cc21` (stereo not shown) [Compound 50]: the “efficacy (laying of fertile eggs)” value in the data set on Boophilus microplus was found to be 100%. Moreover, the efficacy in % in the data set with Phaedon cochleariae, with Spodoptera frugiperda and in the data set with Tetranychus urticae was 100% each time. The “efficacy (kill in %)” value in the data set with adult Musca domestica, in the data set with Lucilia cuprina larvae and in the data set on Ctenocephalides felis was 100% throughout. In the data set “logP (HPLC-MS)” (setting [2]), this compound displayed a log p of 3.52.
Turning to `CCn1c(C(=O)NC(c2ccc(F)c(C(F)(F)F)c2)C(F)(F)F)cc2cc(C(=O)NC3CC3)c(C)cc21` (stereo not shown) [Compound 188], in the data set on Boophilus microplus, the “efficacy (laying of fertile eggs)” value was determined as 100%. For the same compound, the efficacy in % with Phaedon cochleariae, with Spodoptera frugiperda and with Tetranychus urticae was 100% throughout. The “efficacy (kill in %)” value with adult Musca domestica, in the data set on Lucilia cuprina larvae and with Ctenocephalides felis was 100% throughout. Further, the log p in “logP (HPLC-MS)” (setting [2]) turned out to be 3.76.
Consider `CCCn1c(C(=O)NC(c2cccc(C(F)(F)F)c2)C(F)(F)F)cc2cc(C(=O)NC3(C#N)CC3)c(Cl)cc21` (stereo not shown) [Compound 288], for which the “efficacy (laying of fertile eggs)” value with Boophilus microplus is 100%. The efficacy in % with Phaedon cochleariae, in the data set on Spodoptera frugiperda and in the data set on Tetranychus urticae was 100% each time. The “efficacy (kill in %)” value in the data set on adult Musca domestica, in the data set with Lucilia cuprina larvae and in the data set with Ctenocephalides felis was 100% throughout. Also, in the data set “logP (HPLC-MS)” (setting [1]), the log p is on record as 4.03.
On to `Cn1c(C(=O)NC(c2ccc(F)c(C(F)(F)F)c2)C(F)(F)F)cc2cc(C(=O)NC3CC3)c(Cl)cc21` (stereo not shown) [Compound 49], for which the “efficacy (laying of fertile eggs)” value with Boophilus microplus was found to be 100%. Further, the efficacy in % with Phaedon cochleariae, in the data set with Spodoptera frugiperda and in the data set on Tetranychus urticae was 100% in each case. Besides, the “efficacy (kill in %)” value in the data set on adult Musca domestica was found to be 100%; with Lucilia cuprina larvae, 100%; in the data set on Ctenocephalides felis, 98%. The compound further returned a log p in the data set “logP (HPLC-MS)” (setting [2]) of 3.70.
As to `CCn1c(C(=O)NC(c2cc(Cl)cc(Cl)c2)C(F)(F)F)cc2cc(C(=O)NC3(C#N)CC3)c(C)cc21` (stereo not shown) [Compound 195], in the data set with Boophilus microplus, the “efficacy (laying of fertile eggs)” value is 100%. Further, the efficacy in % in the data set on Phaedon cochleariae, with Spodoptera frugiperda and in the data set on Tetranychus urticae was 100% throughout. The “efficacy (kill in %)” value with adult Musca domestica, with Lucilia cuprina larvae and in the data set on Ctenocephalides felis was 100% each time. The log p in the data set “logP (HPLC-MS)” (setting [2]) worked out at 4.09.
Take `CC#CCn1c(C(=O)NC(c2cccc(C(F)(F)F)c2)C(F)(F)F)cc2cc(C(=O)NC3(C#N)CC3)c(Cl)cc21` (stereo not shown) [Compound 285]: in the data set on Boophilus microplus, the “efficacy (laying of fertile eggs)” value is recorded as 100%. Also, the efficacy in % in the data set on Phaedon cochleariae, in the data set on Spodoptera frugiperda and in the data set on Tetranychus urticae was 100% each time. Moreover, the “efficacy (kill in %)” value is given as 90% with adult Musca domestica, 100% with Lucilia cuprina larvae and 100% with Ctenocephalides felis. For the same compound, in “logP (HPLC-MS)” (setting [1]), the log p was found to be 3.87.
Regarding `CCn1c(C(=O)NC(c2ccc(F)c(C(F)(F)F)c2)C(F)(F)F)cc2cc(C(=O)NC3(C#N)CC3)c(Cl)cc21` (stereo not shown) [Compound 16], the “efficacy (laying of fertile eggs)” value in the data set with Boophilus microplus stood at 100%. Also, the efficacy in % in the data set on Phaedon cochleariae, in the data set with Spodoptera frugiperda and in the data set with Tetranychus urticae was 100% each time. In addition, the “efficacy (kill in %)” value in the data set on adult Musca domestica, in the data set on Lucilia cuprina larvae and in the data set on Ctenocephalides felis was 100% each time. In “logP (HPLC-MS)” (setting [2]), this compound gave a log p of 3.88.
In the case of `C#CCn1c(C(=O)NC(c2ccc(F)c(Cl)c2)C(F)(F)F)cc2cc(C(=O)NC3CC3)c(Cl)cc21` (stereo not shown) [Compound 63], the “efficacy (laying of fertile eggs)” value with Boophilus microplus turned out to be 100%. Moreover, the efficacy in % with Phaedon cochleariae, in the data set on Spodoptera frugiperda and in the data set on Tetranychus urticae was 100% throughout. Also, the “efficacy (kill in %)” value in the data set on adult Musca domestica, in the data set with Lucilia cuprina larvae and in the data set with Ctenocephalides felis was 100% in each case. This compound also returned a log p in “logP (HPLC-MS)” (setting [2]) of 3.57.
Turning to `C#CCn1c(C(=O)NC(c2ccc(F)c(Br)c2)C(F)(F)F)cc2cc(C(=O)NC3(C#N)CC3)c(Cl)cc21` (stereo not shown) [Compound 62], the “efficacy (laying of fertile eggs)” value in the data set on Boophilus microplus is given as 100%. In addition, the efficacy in % was 100% in the data set with Phaedon cochleariae, 100% in the data set on Spodoptera frugiperda and 90% in the data set on Tetranychus urticae. Further, the “efficacy (kill in %)” value in the data set with adult Musca domestica is given as 80%; in the data set on Lucilia cuprina larvae, 100%; in the data set with Ctenocephalides felis, 100%. Further, the log p in “logP (HPLC-MS)” (setting [2]) was determined as 3.57.
